# Where a name gives a salt, the structure may show the parent alone. Read-outs that look alike come from different tables or passages of the source.
# Key:
# [1] = biological target: S1P1/EDG1 (Homo sapiens, UniProt P21453); assay: S1P1 CRE-bla CHOK1 reporter assay, inhibition of Forskolin induced cAMP; type: cell-based; conditions: S1P1 CRE-bla CHOK1 cells, 2 μM Forskolin
# Summary of the method: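 CRE-bla CHO K1 cells stably expressing human S1P1 were treated 4 hrs at 37° C with 10-point compound dilutions plus 2 μM Forskolin. Inhibition of cAMP-driven β-lactamase reporter was read with a FRET substrate loaded 2 hrs at room temperature.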
# [2] = biological target: T1, S1P2 (Homo sapiens, UniProt O95136); assay: Specificity over other S1P receptors: S1P2 CRE-bla CHOK1; type: cell-based; conditions: S1P2 CRE-bla CHOK1, without Forskolin; read-out: S1P2 agonist value (EC50)
# T1 construct: expressed in transfected cells; host or cells: CRE-bla CHOK1
# T1 sequence (O95136 whole entry, species assumed): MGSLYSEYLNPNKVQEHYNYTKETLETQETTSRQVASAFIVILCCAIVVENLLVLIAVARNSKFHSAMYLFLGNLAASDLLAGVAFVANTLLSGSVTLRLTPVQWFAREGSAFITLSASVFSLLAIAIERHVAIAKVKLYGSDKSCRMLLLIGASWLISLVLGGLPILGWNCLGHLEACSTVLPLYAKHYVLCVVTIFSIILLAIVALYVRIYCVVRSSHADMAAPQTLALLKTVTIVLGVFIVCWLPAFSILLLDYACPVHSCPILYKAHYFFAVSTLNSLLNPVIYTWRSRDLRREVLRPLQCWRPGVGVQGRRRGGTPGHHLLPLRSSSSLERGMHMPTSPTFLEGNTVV
# Procedure: (§1) Cells were seeded into 384-well black wall/clear bottom plates at 10^4 cells/well/19.5 μl assay media (DMEM-phenol free, 0.5% charcoal/dextran stripped serum, 2 mM glutamine, 0.1 mM NEAA, 1 mM Na-Pyruvate, 25 mM Hepes) and incubated for 18 hrs at 37° C. in 5% CO2. Dose response curves (10-point) were generated in 10 mM Hepes, 0.1% Pluronic F127, in the presence of Forskolin. Cells were treated with 0.5 μl compound in the presence of 2 μM Forskolin for 4 hrs at 37° C. The FRET-based β-lactamase fluorescent substrate (LiveBLAzer™-FRET B/G Loading Kit CC4-AM; Invitrogen) was prepared according to manufacturer's directions, and incubated with cells for 2 hrs at room temperature. Plates were read at Ex:410/Em:458 and Ex:410/Em:522, and the response ratio determined Data was analyzed by non-linear regression to determine the EC50 for inhibition of Forskolin induced cAMP.
# (§2) To assess compound specificity on other […] receptors the following cell lines were used: S1P2 CRE-bla CHOK1, S1P3-Gα15 NFAT-bla HEK293T (Invitrogen), S1P4-bla TANGO U2OS (Invitrogen), S1P5-bla TANGO U2OS (Invitrogen). The same assay set up for S1P1 was used but without Forskolin. S1P4 and S1P5 assays were performed in FreeStyle Expression medium (Invitrogen). S1P5 cells were incubated for 48 hrs in prior to treatment with compound.
# [3] = biological target: T2, S1P3 (Homo sapiens, UniProt Q99500); assay: Specificity over other S1P receptors: S1P3-Gα15 NFAT-bla HEK293T; type: cell-based; conditions: without Forskolin, read-out: S1P3 agonist value (EC50)
# T2 construct: host or cells: NFAT-bla HEK293T
# T2 sequence (Q99500 whole entry): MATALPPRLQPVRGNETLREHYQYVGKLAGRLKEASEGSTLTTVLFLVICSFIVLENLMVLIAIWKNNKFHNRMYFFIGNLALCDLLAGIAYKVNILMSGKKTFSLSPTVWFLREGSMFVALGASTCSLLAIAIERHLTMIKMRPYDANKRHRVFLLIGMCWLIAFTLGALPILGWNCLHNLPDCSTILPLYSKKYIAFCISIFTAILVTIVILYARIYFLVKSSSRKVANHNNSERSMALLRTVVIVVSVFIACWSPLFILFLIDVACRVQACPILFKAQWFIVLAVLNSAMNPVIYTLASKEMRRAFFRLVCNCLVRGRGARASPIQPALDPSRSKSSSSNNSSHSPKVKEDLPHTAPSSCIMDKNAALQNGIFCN
# Procedure: as §1, §2
# [4] = biological target: T3, S1P4 (Homo sapiens, UniProt O95977); assay: Specificity over other S1P receptors: S1P4-bla TANGO U2OS; type: cell-based; conditions: without Forskolin, read-out: S1P4 agonist value (EC50)
# T3 construct: Tango fusion: TEV protease site plus GAL4-VP16 transcription factor (own knowledge of the Tango format); host or cells: U2OS (bla TANGO)
# T3 sequence (O95977 1-384): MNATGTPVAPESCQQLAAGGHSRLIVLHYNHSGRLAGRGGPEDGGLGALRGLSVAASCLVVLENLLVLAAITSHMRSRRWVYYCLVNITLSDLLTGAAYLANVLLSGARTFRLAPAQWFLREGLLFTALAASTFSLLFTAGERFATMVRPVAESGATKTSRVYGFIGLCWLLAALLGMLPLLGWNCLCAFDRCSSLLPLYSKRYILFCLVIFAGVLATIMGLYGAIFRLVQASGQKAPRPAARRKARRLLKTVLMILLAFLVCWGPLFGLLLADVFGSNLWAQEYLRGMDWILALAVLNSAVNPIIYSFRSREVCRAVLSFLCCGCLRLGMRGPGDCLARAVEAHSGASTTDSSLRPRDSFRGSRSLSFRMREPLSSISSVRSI
# Procedure: as §1, with “temperature.” for “temperature. Plates were read at Ex:410/Em:458 and Ex:410/Em:522, and the response ratio determined Data was analyzed by non-linear regression to determine the EC50 for inhibition of Forskolin induced cAMP.”
# as §2
# [5] = biological target: T4, S1P5 (Homo sapiens, UniProt Q9H228); assay: Specificity over other S1P receptors: S1P5-bla TANGO U2OS; type: cell-based; conditions: without Forskolin, read-out: S1P5 agonist value (EC50)
# T4 construct: Tango fusion: TEV protease site plus GAL4-VP16 transcription factor (own knowledge of the Tango format); host or cells: U2OS (bla TANGO)
# T4 sequence (Q9H228 whole entry, the tested form may be a part): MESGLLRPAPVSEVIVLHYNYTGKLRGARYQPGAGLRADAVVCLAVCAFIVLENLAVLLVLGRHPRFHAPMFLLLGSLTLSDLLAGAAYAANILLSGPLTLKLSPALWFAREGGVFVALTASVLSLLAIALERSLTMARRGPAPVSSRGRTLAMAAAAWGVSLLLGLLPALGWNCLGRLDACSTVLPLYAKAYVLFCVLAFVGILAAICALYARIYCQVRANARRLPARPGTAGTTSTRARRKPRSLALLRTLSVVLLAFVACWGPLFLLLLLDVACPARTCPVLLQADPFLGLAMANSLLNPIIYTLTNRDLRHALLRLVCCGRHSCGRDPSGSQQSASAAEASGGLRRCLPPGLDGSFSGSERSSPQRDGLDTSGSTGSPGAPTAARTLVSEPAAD
# Procedure: as §1, with “temperature.” for “temperature. Plates were read at Ex:410/Em:458 and Ex:410/Em:522, and the response ratio determined Data was analyzed by non-linear regression to determine the EC50 for inhibition of Forskolin induced cAMP.”
# as §2
# [6] = system: CD4 or CD8 positive T cells; assay: Lymphopenia in rats; type: in vivo; conditions: for inhibition in vivo at 0.2 mg/kg: po, rat, 24 h after a 0.2 mg/kg single dose; for ED50: read-out: ED50 (estimated dose needed to produce 50% lymphopenia), rat, at 24 h after a 3-5 day dosing regimen
# Procedure: In rats: Female rats (Simonsen Laboratories, Gilroy Calif.) were housed in an ALAAC accredited facility and the research was approved by the facilities Institutional Animal Care and Use Committee (IACUC). The animals were acclimated to the laboratory for at least 5 days prior to initiation of experiments. Rats (n=3/compound/time-point) were dosed by oral gavage with 1 mg/kg compound formulated in a vehicle consisting of 5% DMSO/5% Tween 20 and 90% 0.1N HCL. Control rats were dosed PO with the vehicle. Whole blood was collected from isoflurane anesthetized rats via the retro-orbital sinus and terminal samples were collected by cardiac puncture into EDTA. Whole blood was incubated with mouse anti-rat CD32 (BD #550271), PE-mouse anti-rat CD45R/B220 (BD #554881), PECy5-mouse anti-rat CD4 (BD #554839), and APC-mouse anti-rat CD8a (eBioscience #17-0084) for 30 minutes on ice. Red blood cells were lysed using BD Pharm Lyse Lysing buffer (#555899) and white blood cells were analyzed with a BD FACSArray. Lymphopenia was expressed as the % of white blood cells that were CD4 or CD8 positive T cells. The overall lymphopenia response over 24 h was estimated by calculating the area under the effect curve (AUEC) using the linear trapezoidal rule. In some experiments, total lymphocyte counts were determined using a standard impedance based veterinary hematology analyzer (IDEXX Preclinical Research Services, Sacramento, Calif.).
# The percentage of lymphopenia at 24 h after a 0.2 mg/kg single dose regiment is reported. […] N/A is not available.
# [7] = read-out: S1P1 agonist value (EC50)
# [8] = agonist activity range, read-out: S1P1 ACTIVITY
# Chain of S1P1/EDG1 (P21453 whole entry): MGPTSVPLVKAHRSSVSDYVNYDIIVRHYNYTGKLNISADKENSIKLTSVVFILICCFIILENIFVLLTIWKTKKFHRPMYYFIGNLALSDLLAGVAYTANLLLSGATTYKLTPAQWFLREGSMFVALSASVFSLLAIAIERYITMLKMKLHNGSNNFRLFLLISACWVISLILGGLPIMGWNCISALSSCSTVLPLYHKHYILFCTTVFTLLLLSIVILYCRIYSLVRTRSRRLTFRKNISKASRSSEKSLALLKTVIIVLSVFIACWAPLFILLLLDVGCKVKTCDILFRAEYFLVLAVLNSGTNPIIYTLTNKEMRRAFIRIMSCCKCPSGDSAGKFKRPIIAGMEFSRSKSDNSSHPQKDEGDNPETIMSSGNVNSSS
structure (smiles),measurement,setting,value
"CC(C)Oc1ccc(-c2ncc(-c3cccc4c3CC[C@H]4NC(=O)N3CCCC3)s2)cc1C#N [Compound 172, (R)—N-(4-(2-(3-cyano-4-isopropoxyphenyl)thiazol-5-yl)-2,3-dihydro-1H-inden-1-yl)pyrrolidine-1-carboxamide]",EC50,[1]; [7],0.19 nM
same,EC50,[1]; [8],0.05 to 0.5 nM
same,EC50,[2],> 10 µM
same,EC50,[3],> 10 µM
same,EC50,[4],> 10 µM
same,EC50,[5],203 nM
same,inhibition in vivo at 0.2 mg/kg,[6],22%
same,ED50,[6],0.2 mg/kg
"CC(C)Oc1ccc(-c2nnc(-c3cccc4c3CC[C@H]4NC(=O)N3CCOCC3)s2)cc1C#N [Compound 58, (R)—N-(4-(5-(3-cyano-4-isopropoxyphenyl)-1,3,4-thiadiazol-2-yl)-2,3-dihydro-1H-inden-1-yl)morpholine-4-carboxamide]",EC50,[1]; [8],0.05 to 0.5 nM
same,EC50,[2],> 10 µM
same,EC50,[4],> 10 µM
"CC(C)Oc1ccc(-c2ncc(-c3cccc4c3CC[C@H]4NC(=O)N3CCOCC3)s2)cc1C#N [Compound 186, (R)—N-(4-(2-(3-cyano-4-isopropoxyphenyl)thiazol-5-yl)-2,3-dihydro-1H-inden-1-yl)morpholine-4-carboxamide]",EC50,[1]; [8],0.05 to 0.5 nM
same,EC50,[2],> 10 µM
same,EC50,[4],> 10 µM
"CC(C)Oc1ccc(-c2ncc(-c3cccc4c3CC[C@H]4NS(N)(=O)=O)s2)cc1C#N [Compound 166, (R)—N-(4-(2-(3-cyano-4-isopropoxyphenyl)thiazol-5-yl)-2,3-dihydro-1H-inden-1-yl)sulfamide]",EC50,[1]; [7],0.14 nM
same,EC50,[1]; [8],0.05 to 0.5 nM
same,EC50,[2],8.45 µM
same,EC50,[3],> 10 µM
same,EC50,[4],0.743 µM
same,EC50,[5],64 nM
same,inhibition in vivo at 0.2 mg/kg,[6],47%
same,ED50,[6],0.07 mg/kg
"CC(C)Oc1ccc(-c2nnc(-c3cccc4c3CCC4NS(=O)(=O)CCO)s2)cc1C#N (stereo in doubt) [Compound 46, (R)—N-(4-(5-(3-cyano-4-isopropoxyphenyl)-1,3,4-thiadiazol-2-yl)-2,3-dihydro-1H-inden-1-yl)-2-hydroxyethanesulfonamide]",EC50,[2],> 10 µM
same,EC50,[3],> 10 µM
same,inhibition in vivo at 0.2 mg/kg,[6],39%
"CC(C)Oc1ccc(-c2nnc(-c3cccc4c3CC[C@H]4NC(=O)N3CC[C@@H](N(C)C)C3)s2)cc1C#N [Compound 56, (R)—N—((R)-4-(5-(3-cyano-4-isopropoxyphenyl)-1,3,4-thiadiazol-2-yl)-2,3-dihydro-1H-inden-1-yl)-3-(dimethylamino)pyrrolidine-1-carboxamide]",EC50,[1]; [7],0.32 nM
same,EC50,[1]; [8],0.05 to 0.5 nM
same,EC50,[2],> 10 µM
same,EC50,[3],> 10 µM
same,EC50,[4],> 10 µM
same,EC50,[5],139 nM
same,inhibition in vivo at 0.2 mg/kg,[6],52%
"CC(C)Oc1ccc(-c2nnc(-c3cccc4c3CCC4NS(=O)(=O)CC(=O)N(C)C)s2)cc1C#N (stereo in doubt) [Compound 43, (R)-2-(N-(4-(5-(3-cyano-4-isopropoxyphenyl)-1,3,4-thiadiazol-2-yl)-2,3-dihydro-1H-inden-1-yl)sulfamoyl)-N,N-dimethylacetamide]",EC50,[2],> 10 µM
same,EC50,[3],> 10 µM
same,EC50,[4],> 10 µM
same,inhibition in vivo at 0.2 mg/kg,[6],40%
CC(C)Oc1ccc(-c2ncc(-c3cccc4c3CC[C@H]4NC(=O)[C@@H](N)CO)s2)cc1C#N [Compound 79],EC50,[1]; [8],0.05 to 0.5 nM
CC(C)Oc1ccc(-c2nnc(-c3cccc4c3CCC[C@H]4NC(=O)CN(C)C)s2)cc1C#N [Compound 236],EC50,[1]; [8],0.5 to 5 nM
CC(C)Oc1ccc(-c2ncc(-c3cccc4c3CC[C@H]4NC(=O)N3CC[C@@H](O)C3)s2)cc1C#N [Compound 174],EC50,[1]; [8],0.05 to 0.5 nM
"CC(C)Oc1ccc(-c2nnc(-c3cccc4c3CCC[C@@H]4NS(=O)(=O)CCO)s2)cc1C#N [Compound 290, (S)—N-(5-(5-(3-cyano-4-isopropoxyphenyl)-1,3,4-thiadiazol-2-yl)-1,2,3,4-tetrahydronaphthalen-1-yl)-2-hydroxyethanesulfonamide]",EC50,[1]; [8],0.05 to 0.5 nM
COCCN[C@@H]1CCc2c(-c3cnc(-c4ccc(OC(C)C)c(C#N)c4)s3)cccc21 [Compound 93],EC50,[1]; [8],0.5 to 5 nM
CC(C)Oc1ccc(-c2ncc(-c3cccc4c3CC[C@H]4NC(=O)CN3CCCC3)s2)cc1C#N [Compound 85],EC50,[1]; [8],> 5 nM
CC(C)Oc1ccc(-c2nnc(-c3cccc4c3CCC[C@H]4NC(=O)[C@@H](N)CO)s2)cc1C#N [Compound 248],EC50,[1]; [8],0.05 to 0.5 nM
"CC(C)Oc1ccc(-c2nnc(-c3cccc4c3CCC[C@H]4NCC(=O)O)s2)cc1C#N [Compound 301, (R)-2-((5-(5-(3-cyano-4-isopropoxyphenyl)-1,3,4-thiadiazol-2-yl)-1,2,3,4-tetrahydronaphthalen-1-yl)amino)acetic acid]",EC50,[1]; [8],0.05 to 0.5 nM
CNC(=O)CN[C@H]1CCCc2c(-c3nnc(-c4ccc(OC(C)C)c(C#N)c4)s3)cccc21 [Compound 306],EC50,[1]; [8],0.05 to 0.5 nM
CC(C)Oc1ccc(-c2ncc(-c3cccc4c3CC[C@H]4NS(=O)(=O)CCN3CC[C@@H](N)C3)s2)cc1C#N [Compound 135],EC50,[1]; [8],> 5 nM
CC(C)Oc1ccc(-c2ncc(-c3cccc4c3CC[C@@H]4NC(=O)N3CCC[C@@H](O)C3)s2)cc1C#N [Compound 196],EC50,[1]; [8],0.5 to 5 nM
"CC(C)Oc1ccc(-c2nnc(-c3cccc4c3CC[C@H]4NCC(=O)N(C)C)s2)cc1C#N [Compound 22, (R)-2-((4-(5-(3-cyano-4-isopropoxyphenyl)-1,3,4-thiadiazol-2-yl)-2,3-dihydro-1H-inden-1-yl)amino)-N,N-dimethylacetamide hydrochloride]",EC50,[1]; [8],0.05 to 0.5 nM
CC(C)Oc1ccc(-c2ncc(-c3cccc4c3CC[C@H]4NC(=O)N3CCC(O)CC3)s2)cc1C#N [Compound 202],EC50,[1]; [8],0.5 to 5 nM
CC(C)Oc1ccc(-c2ncc(-c3cccc4c3CC[C@H]4NCC(=O)N3CC[C@@H](O)C3)s2)cc1C#N [Compound 103],EC50,[1]; [8],0.05 to 0.5 nM
CC(C)Oc1ccc(-c2nnc(-c3cccc4c3CCC[C@@H]4NCc3ncco3)s2)cc1C#N [Compound 268],EC50,[1]; [8],0.5 to 5 nM
COC(=O)CCS(=O)(=O)N[C@@H]1CCc2c(-c3cnc(-c4ccc(OC(C)C)c(C#N)c4)s3)cccc21 [Compound 156],EC50,[1]; [8],0.05 to 0.5 nM
CC(C)Oc1ccc(-c2ncc(-c3cccc4c3CC[C@H]4NCC(=O)N3CCNCC3)s2)cc1C#N [Compound 107],EC50,[1]; [8],0.5 to 5 nM
